The source of these data is patent publication US20220305121A1, “N-ARYL SULFONAMIDE DERIVATIVES AS VACCINE ADJUVANT” (The Regents of the University of California, priority 2019, published 2022).

Common to all, as to type: cell-based
Data set [1] relates to NF-κB. The experiment in a line: Measurement of NF-κB activation using THP1-Blue NF-κB cells (SEAP reporter, LPS as primary stimulus). The method, then: (§1) THP1-Blue™ NF-κB cells were plated in 96-well plates at 10^5 cells/well in 100 μl RPMI supplemented with 10% fetal bovine serum (FBS, Omega Scientific, Inc., Tarzana, Calif.), 100 U/mL penicillin, 100 μg/ml streptomycin (Thermo Fisher Scientific) and Normocin (Invivogen). LPS was prepared in assay medium at a concentration of 20 μg/mL. Tested compounds were dissolved in DMSO at 1 mM as a stock solution and were further diluted in the LPS solution to a final concentration of 10 μM. 100 μL of this solution was then transferred to the plated cells to obtain a final concentration of LPS at 10 μg/mL and compound at 5 μM ([…]). The culture supernatants were harvested after a 20 hour incubation period, SEAP activity in the culture supernatants was determined by a colorimetric assay using QuantiBlue (Invivogen). Plate absorbance was read at 630 nm using a Tecan Infinite M200 plate reader (Männedorf, Switzerland). The SEAP concentration was directly proportional to NF-κB activity, which was 2-point normalized to yield activity of compound 1+LPS as 200% and activity for LPS as 100%.
(§2) Measurement of NF-κB Activation Using THP1-Blue NF-κB Cells. THP1-Blue NF-κB cells were plated in 96-well plates at 10^5 cells/well in 100 μL of RPMI supplemented with 10% fetal bovine serum (FBS, Omega Scientific, Inc., Tarzana, Calif.), 100 U/mL penicillin, 100 μg/mL streptomycin (Thermo Fisher Scientific), and Normocin (Invivogen). LPS was prepared in assay medium at a concentration of 20 μg/mL. Tested compounds were dissolved in DMSO at 1 mM as a stock solution and were further diluted in the LPS solution to a final concentration of 10 μM. 100 μL of this solution was then transferred to the plated cells to obtain a final concentration of LPS at 10 μg/mL and compound at 5 μM ([…]). The culture supernatants were harvested after a 20 hours incubation period. SEAP activity in the culture supernatants was determined by a colorimetric assay using QuantiBlue (Invivogen). Plate absorbance was read at 630 nm using a Tecan Infinite M200 plate reader (Mannedorf, Switzerland). The SEAP concentration was directly proportional to NF-κB activity, which was two-point normalized to yield activity of compound 1+LPS as 200% and activity for LPS as 100%.

Data set [2] concerns NF-κB and ISRE. The data set can be described thus: NF-κB and ISRE reporter assays (primary screens), statements in words for both assays. The note with it: with LPS or IFN-α as primary stimulus; compared to compound 1. The protocol:
as §1
(§3) ISRE-bla THP-1 cells were plated in 96-well plates at 5×10^4 cells/well in 50 μl RPMI supplemented with 10% dialyzed FBS (Atlanta Biologicals, Inc., GA), 0.1 mM nonessential amino acids, 1 mM sodium pyruvate, 100 U/mL penicillin and 100 μg/ml streptomycin. Type I IFN-α (R&D Systems, #11200-2) solution was prepared in assay medium at a concentration of 200 U/mL Tested compounds were dissolved in DMSO at 1 mM and were further diluted in the IFN-α solution to a final concentration of 10 μM. 50 μL of this solution was then transferred to the plated cells to obtain a final concentration of IFN-α at 100 U/mL and compound at 5 μM ([…]), The cells were incubated for 16 hours, after which 20 μL of 6×LiveBLAzer™ FRET B/G Substrate (CCF4-AM) mixture (prepared according to the manufacturer's instructions) was added to each well, Plates were incubated at room temperature in the dark for 3 hours. Fluorescence was measured on a Tecan Infinite M200 plate reader at an excitation wavelength of 405 nm, and emission wavelengths of 465 nm and 535 nm. Background values (cell free wells at the same fluorescence wavelength) were subtracted from the raw fluorescence intensity values and the emission ratios were calculated as the ratio of background subtracted fluorescence intensities at 465 nm to background subtracted fluorescence intensities at 535 nm. The ISRE activity values for these compounds were 2-point normalized to yield activity of compound 1+IFN-α as 200% and activity for IFN-α as 100%.
as §2
Measurement of ISRE Activity in ISRE-bla THP-1 Cells. […]
Background: A reporter such as luciferase makes a cellular process visible.

Data set [3] has as its system THP-1 cells. The data set can be described thus: Cell viability assay (MTT). The note with it: compound 5 μM, 18 hours incubation; normalized to DMSO as 100%; mean. The method, then:
THP-1 cells were plated in 96-well plates (10^5 cells/well) in 100 μL RPMI supplemented with 10% FBS, 100 U/mL penicillin and 100 μg/ml streptomycin. Compounds were dissolved in DMSO at 1 mM stock solution and were further diluted to 10 μM in the assay medium. 100 μL of this solution was added to the cells to obtain a final compound concentration of 5 μM ([…]). After 18 hours incubation, a solution of MTT in assay media (0.5 mg/mL) was added to each well and further incubated for 4 to 6 hours, followed by addition of cell lysis buffer (15% w/v SDS and 0.12% v/v 12N HCl aqueous solution), incubated overnight, and then absorbance measured at 570 nm using 650 nm as reference using Tecan Infinite M200 plate reader.
Cell Viability Assay. THP-1 cells were plated in 96-well plates (10^5 cells/well) in 100 μL RPMI supplemented with 10% FBS, 100 U/mL penicillin, and 100 μg/mL streptomycin. Compounds were dissolved in DMSO at 1 mM stock solution and were further diluted to 10 μM in the assay medium. 100 μL of this solution was added to the cells to obtain a final compound concentration of 5 μM ([…]). After 18 h incubation, a solution of MTT in assay media (0.5 mg/mL) was added to each well and further incubated for 4-6 hours, followed by addition of cell lysis buffer (15% w/v SDS and 0.12% v/v 12 N HCl aqueous solution), incubation overnight, and then absorbance was measured at 570 nm using 650 nm as reference using Tecan Infinite M200 plate reader.

Data set [4] concerns ISRE. The data set can be described thus: Measurement of ISRE activity in ISRE-bla THP-1 cells (FRET, IFN-α as primary stimulus). The conditions noted are these: for activity at 5 µM: read-out: ISRE % Activation; for ISRE activity (in words): with IFN-α. The method, then: as §3
Measurement of ISRE Activity in ISRE-bla THP-1 Cells. ISREbla THP-1 cells were plated in 96-well plates at 5×10^4 cells/well in 50 μL of RPMI supplemented with 10% dialyzed FBS (Atlanta Biologicals, Inc., GA), 0.1 mM nonessential amino acids, 1 mM sodium pyruvate, 100 U/mL penicillin, and 100 μg/mL streptomycin. Type I IFN-α (R&D Systems, no. 11200-2) solution was prepared in assay medium at a concentration of 200 U/mL. Tested compounds were dissolved in DMSO at 1 mM and were further diluted in the IFN-α solution to a final concentration of 10 μM. 50 μL of this solution was then transferred to the plated cells to obtain a final concentration of IFN-α at 100 U/mL and compound at 5 μM ([…]). The cells were incubated for 16 hours, after which 20 μL of 6×LiveBLAzer FRET B/G substrate (CCF4-AM) mixture (prepared according to the manufacturer's instructions) was added to each well. Plates were incubated at room temperature in the dark for 3 hours. Fluorescence was measured on a Tecan Infinite M200 plate reader at an excitation wavelength of 405 nm and emission wavelengths of 465 and 535 nm. Background values (cell free wells at the same fluorescence wavelength) were subtracted from the raw fluorescence intensity values and the emission ratios were calculated as the ratio of background subtracted fluorescence intensities at 465 nm to background subtracted fluorescence intensities at 535 nm. The ISRE activity values for these compounds were two-point normalized to yield activity of compound 1+IFN-α as 200% and activity for IFN-α as 100%.

Setting [5] is: compound 5 μM + LPS, 20 hour incubation, two point normalized: compound 1 + LPS = 200%, LPS = 100%, mean.
Setting [6] is: Homo sapiens, THP-1, compound 5 μM + IFN-α 100 U/mL, 16 hours, two point normalized: compound 1 + IFN-α = 200%, IFN-α = 100%, mean.

“Also recorded” adds a separate entry of the source.

`CCOc1ccc(S(=O)(=O)Nc2cc(OC)c(Br)cc2OC)cc1` [Compound 7, N-(4-bromo-2,5-dimethoxyphenyl)-4-ethoxybenzenesulfonamide]: the values for the activity at 5 µM in data set [1] (setting [5]) and in data set [4] (setting [6]) were 176% and 235%, respectively. Besides, the “activity in NF-κB and ISRE assays (in words)” value in data set [2] is on record as “retained activity”. The “MTT % Viability” value in data set [3] is recorded as 68.8%. Also, the “ISRE activity (in words)” value in data set [4] is listed as “slightly skewed ISRE activity”.

Consider `CCOc1ccc(S(=O)(=O)Nc2cc(OC)c(Cl)c(OC)c2)cc1` [Compound 8, N-(4-chloro-3,5-dimethoxyphenyl)-4-ethoxybenzenesulfonamide], for which the activity at 5 µM in data set [1] (setting [5]) is 179%; in data set [4] (setting [6]), 218%. The “activity in NF-κB and ISRE assays (in words)” value in data set [2] is reported as “complete loss of activity”. For the same compound, in data set [3], the “MTT % Viability” value turned out to be 71.4%. For the same compound, in data set [4], the “ISRE activity (in words)” value is “slightly skewed ISRE activity”.

As for `COc1cc(NS(=O)(=O)c2ccc(O)cc2)c(OC)cc1Cl` [Compound 11, N-(4-chloro-2,5-dimethoxyphenyl)-4-hydroxybenzenesulfonamide], the activity at 5 µM was 98% in data set [1] (setting [5]) and 104% in data set [4] (setting [6]). Moreover, in data set [2], the “activity in NF-κB and ISRE assays (in words)” value is “not tolerated”. Moreover, in data set [3], the “MTT % Viability” value stood at 85.2%.

On to `COc1ccc(S(=O)(=O)Nc2cc(OC)c(Cl)cc2OC)cc1` [Compound 12, N-(4-chloro-2,5-dimethoxyphenyl)-4-methoxybenzenesulfonamide], for which the activity at 5 µM in data set [1] (setting [5]) was found to be 226%; in data set [4] (setting [6]), 219%. In addition, the concentration for a half-maximal effect (EC50) in data set [1] (dose response in the presence of LPS) worked out at 1850 nM; in data set [4] (Homo sapiens, THP-1, dose response in the presence of IFN-α) it was 1400 nM. For the same compound, the “activity in NF-κB and ISRE assays (in words)” value in data set [2] was “tolerated; also recorded: retained activity”. The “MTT % Viability” value in data set [3] turned out to be 69.6%.

On to `CCCOc1ccc(S(=O)(=O)Nc2cc(OC)c(Cl)cc2OC)cc1` [Compound 13, N-(4-chloro-2,5-dimethoxyphenyl)-4-propoxybenzenesulfonamide], for which the activity at 5 µM worked out at 149% in data set [1] (setting [5]) and 125% in data set [4] (setting [6]). For the same compound, the “activity in NF-κB and ISRE assays (in words)” value in data set [2] is listed as “weakly active; also recorded: retained activity”. Also, in data set [3], the “MTT % Viability” value was found to be 71.3%.

As to `C#CCOc1ccc(S(=O)(=O)Nc2cc(OC)c(Cl)cc2OC)cc1` [Compound 15, N-(4-chloro-2,5-dimethoxyphenyl)-4-(prop-2-yn-1-yloxy) benzenesulfonamide], the “NF-κB % Activation” value in data set [1] (setting [5]) turned out to be 97%. Moreover, the “activity in NF-κB and ISRE assays (in words)” value in data set [2] was “inactive”. Also, the “MTT % Viability” value in data set [3] came to 80.9%. Moreover, the “ISRE % Activation” value in data set [4] (compound 5 μM + IFN-α 100 U/mL, 16 hours, two point normalized: compound 1 + IFN-α = 200%, IFN-α = 100%, mean) amounted to 99%.

Consider `CCCc1ccc(S(=O)(=O)Nc2cc(OC)c(Cl)cc2OC)cc1` [Compound 16, N-(4-chloro-2,5-dimethoxyphenyl)-4-propylbenzenesulfonamide], for which the activity at 5 µM in data set [1] (setting [5]) came out at 102%; in data set [4] (setting [6]) it was 103%. Moreover, in data set [2], the “activity in NF-κB and ISRE assays (in words)” value is reported as “loss of activity”. For the same compound, the “MTT % Viability” value in data set [3] was found to be 85.7%.

As for `COc1cc(NS(=O)(=O)c2ccc(Oc3ccccc3)cc2)c(OC)cc1Cl` [Compound 22, N-(4-chloro-2,5-dimethoxyphenyl)-4-phenoxybenzenesulfonamide], the activity at 5 µM in data set [1] (setting [5]) was 98%; in data set [4] (setting [6]), 95%. Besides, the “activity in NF-κB and ISRE assays (in words)” value in data set [2] was “inactive”. Also, the “MTT % Viability” value in data set [3] stood at 91.3%.

In the case of `COc1cccc(S(=O)(=O)Nc2cc(OC)c(Cl)cc2OC)c1` [Compound 23, N-(4-chloro-2,5-dimethoxyphenyl)-3-methoxybenzenesulfonamide], the results for the activity at 5 µM in data set [1] (setting [5]) and in data set [4] (setting [6]) were 116% and 104%, respectively. In addition, the “activity in NF-κB and ISRE assays (in words)” value in data set [2] is on record as “none of these molecules were active”. For the same compound, the “MTT % Viability” value in data set [3] was found to be 79.6%.

For the compound `COc1cc(NS(=O)(=O)c2ccccc2OC)c(OC)cc1Cl` [Compound 24, N-(4-chloro-2,5-dimethoxyphenyl)-2-methoxybenzenesulfonamide], the activity at 5 µM worked out at 96% in data set [1] (setting [5]) and 101% in data set [4] (setting [6]). Also, in data set [2], the “activity in NF-κB and ISRE assays (in words)” value is given as “none of these molecules were active”. Also, the “MTT % Viability” value in data set [3] worked out at 92.1%.

As usually defined, the EC50 is the concentration giving half of the maximal effect.
